Source: the NIST ThermoML archive (doi:10.1021/je060271a)

Details: 323.15 K, Liquid, Vibrating tube method

CCCCC(=O)OCC(COC(=O)CCCC)(COC(=O)CCCC)COC(=O)CCCC [pentaerythritol tetrapentanoate]
Details	mass density [kg/m3]
25366 kPa	1011.6
25395 kPa	1011.5
25431 kPa	1011.6
25460 kPa	1011.6
25495 kPa	1011.6
25525 kPa	1011.6
25555 kPa	1011.6
25590 kPa	1011.6
25620 kPa	1011.7
25651 kPa	1011.7
25684 kPa	1011.7
25714 kPa	1011.8
25750 kPa	1011.8
25780 kPa	1011.9
25817 kPa	1011.9
25847 kPa	1011.7
25878 kPa	1011.8
25908 kPa	1012
25945 kPa	1011.9
25976 kPa	1011.9
26007 kPa	1011.9
26044 kPa	1011.9
26076 kPa	1011.8
26107 kPa	1012
26145 kPa	1012
26176 kPa	1012
26208 kPa	1012.1
26245 kPa	1012.1
26277 kPa	1012
26308 kPa	1012.1
26346 kPa	1012
26378 kPa	1012.2
26410 kPa	1012.2
26448 kPa	1012.2
26480 kPa	1012.3
26512 kPa	1012.2
26551 kPa	1012.2
26584 kPa	1012.3
26617 kPa	1012.3
26656 kPa	1012.3
26689 kPa	1012.2
26722 kPa	1012.4
26754 kPa	1012.4
26794 kPa	1012.3
26826 kPa	1012.3
26860 kPa	1012.3
26900 kPa	1012.5
26933 kPa	1012.5
26967 kPa	1012.4
27007 kPa	1012.6
27041 kPa	1012.5
27075 kPa	1012.5
27109 kPa	1012.6
27150 kPa	1012.7
27183 kPa	1012.7
27218 kPa	1012.7
27258 kPa	1012.7
27292 kPa	1012.6
27327 kPa	1012.6
27362 kPa	1012.7
27404 kPa	1012.7
27440 kPa	1012.7
27475 kPa	1012.8
27510 kPa	1012.9
27552 kPa	1012.9
27586 kPa	1012.9
27628 kPa	1012.9
27663 kPa	1012.9
27698 kPa	1012.9
27733 kPa	1012.9
27776 kPa	1013.1
27811 kPa	1013.1
27847 kPa	1013
27890 kPa	1013.1
27926 kPa	1013.1
27968 kPa	1013.1
28005 kPa	1013.1
28041 kPa	1013.1
28077 kPa	1013.2
28122 kPa	1013.2
28158 kPa	1013.1
28195 kPa	1013.3
28238 kPa	1013.2
28276 kPa	1013.3
28313 kPa	1013.4
28357 kPa	1013.2
28396 kPa	1013.3
28435 kPa	1013.4
28472 kPa	1013.4
28511 kPa	1013.4
28557 kPa	1013.5
28595 kPa	1013.5
28633 kPa	1013.5
28672 kPa	1013.6
28719 kPa	1013.5
28798 kPa	1013.6
28964 kPa	1013.6
28998 kPa	1013.7
29025 kPa	1013.8
29053 kPa	1013.7
29087 kPa	1013.7
29115 kPa	1013.8
29143 kPa	1013.8
29325 kPa	1013.9
29354 kPa	1014
29388 kPa	1013.9
29418 kPa	1014
29452 kPa	1014
29480 kPa	1013.9
29509 kPa	1014.1
29544 kPa	1014
29573 kPa	1014
29602 kPa	1014.1
29638 kPa	1014.2
29667 kPa	1014.1
29697 kPa	1014.1
29733 kPa	1014.2
29762 kPa	1014.2
29792 kPa	1014.2
29822 kPa	1014.1
29857 kPa	1014.2
29886 kPa	1014.2
29917 kPa	1014.3
29952 kPa	1014.3
29982 kPa	1014.4
30012 kPa	1014.3
30049 kPa	1014.4
30078 kPa	1014.4
30109 kPa	1014.5
30146 kPa	1014.5
30177 kPa	1014.4
30208 kPa	1014.5
30238 kPa	1014.4
30275 kPa	1014.4
30306 kPa	1014.5
30342 kPa	1014.6
30373 kPa	1014.5
30404 kPa	1014.6
30435 kPa	1014.6
30472 kPa	1014.7
30504 kPa	1014.6
30535 kPa	1014.7
30573 kPa	1014.7
30604 kPa	1014.7
30641 kPa	1014.6
30673 kPa	1014.7
30705 kPa	1014.8
30742 kPa	1014.7
30774 kPa	1014.9
30806 kPa	1014.9
30838 kPa	1014.8
30876 kPa	1014.9
30908 kPa	1014.9
30947 kPa	1014.9
30979 kPa	1014.9
31012 kPa	1014.9
31051 kPa	1014.9
31084 kPa	1015
31116 kPa	1015.1
31149 kPa	1015
